Reference: article PMC11013136, “Design, Synthesis, and Anti-Leukemic Evaluation of a Series of Dianilinopyrimidines by Regulating the Ras/Raf/MEK/ERK and STAT3/c-Myc Pathways” (Molecules, 2024)

Key:
HEL cells [1] = assay: MTT cell viability assay, HEL cells; type: cell-based; conditions: for IC50: Homo sapiens, HEL, 48 h
Procedure: (§1) To estimate the effects of N-Phenyl-2-pyrimidinamine derivatives (Figure 1A) on HEL, K562, and Jurkat cells, we treated these cells with the compounds at different concentrations (1–20 μM) for 48 h. […] H-121 could selectively impair the proliferation of HEL and Jurkat cells. H-123 blocked the proliferation of the Jurkat cells. Those four compounds had no toxicity to the HL7702 cell line.
(§2) To validate the effects of H-120 on the viability of HEL cells, we treated the cells with the compound at different concentrations (1–20 μM) for 24 h, 48 h, and 72 h. […] However, H-120 was not cytotoxic on normal HL7702 (IC50 > 20 μM) (Figure 1B). The morphology of HEL cells treated with H-120 gradually crumpled and appeared fragmented (Figure 1E).
(§3) The logarithmically grown HEL cells were seeded in a 96-well culture plate at a density of 8000 cells per well and treated with different concentrations of H-120 (0.125 μM, 0.25 μM, 0.5 μM, and 1 μM) or 0.1% DMSO (control). After 24 h, 48 h, and 72 h treatment, the cells were added to 10 μL of MTT reagent for 4 h, and then added to 100 μL of triple cleavage fluid (SDS 10 g, isobutanol 5 mL and 10M HCl 0.1 mL, dissolved with ddH2O into 100 mL solution). After using a microscope to observe the completely dissolved crystal, the cells’ optical absorbance value was measured at 570 nm using an enzyme-labeling instrument (BioTek, Winooski, VT, United States). Inhibition rate = (OD value of DMSO group-OD value of experimental group)/OD value of DMSO group × 100%.
The logarithmically grown HEL cells were collected and planted in 96-well plates at a density of 8000 cells per well. After the cell state was stabilized, HEL cells were treated with H-120 solution (0.125 μM, 0.25 μM, 0.5 μM, 1 μM), and then the OD value was measured at 570 nm in different periods of time. The growth curves were plotted.

Jurkat cells = assay: MTT cell viability assay, Jurkat cells; type: cell-based; conditions: Homo sapiens, 48 h
Procedure: as §1, §3

K562 cells = assay: MTT cell viability assay, K562 cells; type: cell-based; conditions: Homo sapiens, 48 h
Procedure: as §1, §3

HL7702 cells = assay: MTT cytotoxicity on normal hepatic cell line HL7702; type: cell-based; conditions: Homo sapiens, L02, 48 h
Procedure: as §1, §2, §3

[2] = system: F-MuLV-induced leukemia mice; assay: F-MuLV-induced erythroleukemia mice; type: in vivo, BALB/c mice; conditions: for number of leukemic cells in the spleens (H&E staining): VCR 0.25 mg/kg, H-120 1-4 mg/kg intraperitoneally
Excerpt: We used the F-MuLV-induced leukemia mice to determine the anti-leukemia activity of H-120. […] The effect of H-120 treatment is similar to that in the vincristine (VCR) treatment group (Figure 6A,C). […] The CD71 and Ter119 have been broadly used to reflect mice’s dynamic maturation of erythrocytes. We tested CD71 and Ter119 expression in spleen cells and bone marrow cells by using flow cytometry.
The NIH3T3 cells expressing the F-MuLV clone 57 vector were donated by Professor Ben-David Yaacov, Key Laboratory of Natural Product Chemistry, Chinese Academy of Sciences, Guizhou Province. In order to induce leukemia, BALB/c mice (male and females; Tongxin, Chongqing, China), aged one day, were administered a solitary intraperitoneal injection of F-MuLV. Then, infected neonates were weaned at 4 weeks and randomly divided into 6 groups: normal group (NC), model group (M), positive control group (VCR: 0.25 mg/kg), H-120 low dose group (H-120-L: 1 mg/kg), H-120 medium dose group (H-120-M: 2 mg/kg), and H-120 high dose group (H-120-H: 4 mg/kg). After 5 weeks of virus infection, mice were treated with H-120 intraperitoneally every other day for 3 weeks. The normal and model groups were given saline, and the control group was given vincristine intraperitoneally. Under the supervision of experienced staff, the leukemia mice were sacrificed humanely by cervical dislocation. Serum biochemical indexes of the mice were detected. The spleens of the mice were removed. A portion of the spleen was fixed in formaldehyde for 24 h, and paraffin was embedded and sliced. The effects of H-120 on the normal physiological structure of the spleen were observed by H&E staining. Then, part of the spleen tissue was ground and prepared into a single-cell suspension, which was stained with CD71, Ter119, CD4, CD8a, and B220 antibodies for 30 min, respectively. The expression of markers on the spleen cell surfaces of mice was analyzed by flow cytometry.

HEL cells [3] = assay: Annexin V-FITC/PI apoptosis detection by flow cytometry; type: cell-based; conditions: 1 μM
Excerpt: (§4) Apoptosis plays a crucial role in impairing cancer cell viability. To determine whether the H-120 inhibiting HEL cell growth is caused by apoptosis, we applied HEL cells with different concentrations of H-120. […] To explore the mechanism of apoptosis, we used JC-1 staining to detect the effect of H-120 on mitochondrial membrane potential. […] The results confirmed that H-120 can induce HEL cell apoptosis by impairing mitochondria.
For the apoptosis detection assay, the logarithmically grown HEL cells were treated with H-120 solution (0.125 μM, 0.25 μM, 0.5 μM, and 1 μM) for 24 h, 48 h, and 72 h. Subsequently, the cells were collected and rinsed three times with pre-cooled PBS. Based on the instruction of the Annexin V-FITC apoptosis detection kit, the cells were resuspended in 50 μL of 1 × binding buffer and stained for 15 minutes. Then, the apoptosis rate was determined using flow cytometry (ACEA NovoCyte, San Diego, CA, United States). For cell cycle analysis, HEL cells were treated with the different concentrations of H-120 (0.125 μM, 0.25 μM, 0.5 μM, 1 μM) for 24 h. […] Cells were stained with 0.5 mL of PI (propidium iodide, 50 µg/mL), RNase (5 µg/mL) inhibitor, and Triton × 100 (0.5 µg/mL) for 10 min at room temperature in the dark and then analyzed by flow cytometry.

HEL cells [4] = assay: JC-1 mitochondrial membrane potential assay; type: cell-based; conditions: 0.125-1 μM, 48 h, flow cytometry
Procedure: as §4
Cells (2 × 10^5) were seeded in a 2 mL medium with different concentrations of H-120 (0.125 μM, 0.25 μM, 0.5 μM, 1 μM). After being treated with H-120 for 48 h, the cells were preincubated with JC-1 working solution for 20 min at 37 °C, 5% CO2. After incubation, the dye was removed, and the cells were washed two times with JC-1 [48].

HEL cells [5] = assay: Cell cycle analysis (PI, flow cytometry); type: cell-based; conditions: 0.125-1 μM, 24 h
Procedure: (§5) Cell cycle regulation is critical for cell differentiation and proliferation. To investigate whether H-120 affects the cell cycle of HEL, we treated HEL cells with various concentrations of H-120.
For the apoptosis detection assay, the logarithmically grown HEL cells were treated with H-120 solution (0.125 μM, 0.25 μM, 0.5 μM, and 1 μM) for 24 h, 48 h, and 72 h. Subsequently, the cells were collected and rinsed three times with pre-cooled PBS. Based on the instruction of the Annexin V-FITC apoptosis detection kit, the cells were resuspended in 50 μL of 1 × binding buffer and stained for 15 minutes. Then, the apoptosis rate was determined using flow cytometry (ACEA NovoCyte, San Diego, CA, United States). For cell cycle analysis, HEL cells were treated with the different concentrations of H-120 (0.125 μM, 0.25 μM, 0.5 μM, 1 μM) for 24 h. Cells were collected, fixed with pre-cooled 70% ethanol, and kept at 4 °C for 4 h before being transferred to −20 °C overnight. Cells were stained with 0.5 mL of PI (propidium iodide, 50 µg/mL), RNase (5 µg/mL) inhibitor, and Triton × 100 (0.5 µg/mL) for 10 min at room temperature in the dark and then analyzed by flow cytometry.

HEL cells [6] = assay: Hoechst 33258 staining (DNA damage); type: cell-based; conditions: 0.125-1 μM, 24 h
Procedure: as §5
After subjecting HEL cells to H-120 solution (0.125 μM, 0.25 μM, 0.5 μM, 1μM) for 24 h, the cells were collected, resuspended, and washed with pre-cooled PBS. Subsequently, the cells were fixed, stained, and washed according to the instructions provided by the Apoptosis-Hoechst 33258 Staining Kit. To prevent fluorescence interference, an appropriate volume of anti-fluorescence quenching sealing solution was added to the cells. The cells were then placed on a spare slide, covered with a coverslip, and immediately observed and photographed using a Nikonfluorescence microscope.

HEL cells [7] = assay: Western blotting of cell cycle, apoptosis, Ras/Raf/MEK/ERK and STAT3/c-Myc proteins; type: cell-based; conditions: Western blot
Excerpt: as §5
To study the effect of H-120 on apoptosis proteins, we treated HEL cells with various concentrations of H-120.
To assess whether the effect of H-120 on HEL cells is involved in the inactivation of Ras/Raf/MEK/ERK/MAPK signaling pathway, we tracked this pathway bottom-up in HEL cells treated with H-120 using Western blotting.
To examine the effect of H-120 on the p-STAT3 and c-Myc, we checked the p-STAT3 and c-Myc levels in HEL cells treated with H-120. […] STAT3 acts through its phosphorylation and enters nuclear. The nuclear–cytoplasmic separation experiment was conducted.
HEL cells were collected after 24 h of H-120 treatment and washed with PBS, and the supernatant was discarded. According to the instructions of the Nuclear and Cytoplasmic Protein Extraction Kit (Beyotime Biotechnology, Shanghai, China), we added cytoplasmic protein extraction reagent A equipped with PMSF (phenylmethanesulfonyl fluoride) and used vigorous vortexing at 2500 rpm for 5 s to suspend and disperse the cell precipitation entirely. After 15 min of an ice bath, we added cytoplasmic protein extraction reagent B. The sample was vigorously vortexed at 2500 rpm for 5 s, then centrifuged at 4 °C for 5 min at 12,000× g, and the supernatant was extracted to leave a precipitate. The supernatant was the cytoplasmic protein. For the precipitate, the […] protein extraction reagent equipped with PMSF was added immediately, mixed, and then placed on ice. The highest-speed vigorous vortex was performed for 20 s every 2 min for 30 min, followed by centrifugation at 12,000× g at 4 °C for 10 min. Finally, the supernatant was taken as the nuclear protein.
HEL cells after drug action were collected, added to and mixed with cell lysis buffer, and […] on ice for one hour before protein concentration was detected using a BCA (bicinchoninic acid) kit. Proteins (50 μg) were separated by sodium dodecyl sulfate-polyacrylamide gel electrophoresis and transferred to a PVDF (polyvinylidene fluoride) membrane ([…], Bio-Rad, Hercules, CA, USA) via wet transfer. Then, 5% bovine serum albumin closed the membrane for 1 h, and the membrane was washed three times with TBS (20 mM Tris-HCl) for 5 min each time. Membranes were allowed to incubate with the primary antibody overnight at 4 °C. The anti-rabbit antibody secondary antibody was incubated at room temperature for 2 h. Then, the membrane was washed with 1× TBST (20 mM Tris-HCl, 0.1% Tween 20) for 15 min. After washing, the fetal membrane was scanned with an infrared imaging scanner. β-actin was used as a loading control.

| Compound | IC50 (HEL cells [1]) | IC50 (Jurkat cells) | IC50 (K562 cells) | IC50 (HL7702 cells) | number of leukemic cells in the spleens (H&E staining) ([2]; vs model group) | other results |
| --- | --- | --- | --- | --- | --- | --- |
| CNC(=O)c1ccccc1Nc1nc(Nc2ccc(Nc3c(NC45CC6CC(CC(C6)C4)C5)c(=O)c3=O)cc2)ncc1C(F)(F)F [H-122, 2-((2-((4-((2-(((1R,3R,5S)-Adamantan-1-yl)amino)-3,4-dioxocyclobut-1-en-1-yl)amino)phenyl)amino)-5-(trifluoromethyl)pyrimidin-4-yl)amino)-N-methylbenzamide] | 11.5 ± 0.53 µM | 1.63 ± 0.28 µM | 16.3 ± 1.11 µM | > 20 µM |  |  |
| C=CC(=O)Nc1ccc(Nc2ncc(C)c(Nc3sccc3C(=O)NC)n2)cc1 [H-121, 2-((2-((4-Acrylamidophenyl)amino)-5-methylpyrimidin-4-yl)amino)-N-methylthiophene-3-carboxamide] | 8.78 ± 0.45 µM | 10.4 ± 0.238 µM | > 20 µM | > 20 µM |  |  |
| CC[C@]1(O)C[C@H]2CN(CCc3c([nH]c4ccccc34)[C@@](C(=O)OC)(c3cc4c(cc3OC)N(C=O)[C@H]3[C@@](O)(C(=O)OC)[C@H](OC(C)=O)[C@]5(CC)C=CCN6CC[C@]43[C@@H]65)C2)C1 [VCR, Vincristine, reference compound] |  |  |  |  | decreased significantly |  |
| CNC(=O)c1ccsc1Nc1nc(Nc2ccc(Nc3c(NC45CC6CC(CC(C6)C4)C5)c(=O)c3=O)cc2)ncc1C(F)(F)F [H-123, 2-((2-((4-((2-(((1R,3R,5S)-Adamantan-1-yl)amino)-3,4-dioxocyclobut-1-en-1-yl)amino)phenyl)amino)-5-(trifluoromethyl)pyrimidin-4-yl)amino)-N-methylthiophene-3-carboxamide] | > 20 µM | 5.2 ± 1.17 µM | > 20 µM | > 20 µM |  |  |
| C#CC(=O)Nc1ccc(Nc2ncc(C)c(Nc3sccc3C(=O)NC)n2)cc1 [H-120, 2-[5-Methyl-2-(4-propynoylamino-phenylamino)-pyrimidin-4-ylamino]-thiophene-3-carboxylic acid methylamide] | 0.148 ± 0.04 µM | 0.665 ± 0.02 µM | 2.34 ± 0.22 µM | > 20 µM | decreased significantly | HEL cell proliferation (HEL cells [1]; 24 h, 48 h and 72 h): prevented the HEL cell proliferation in a dose- and time-dependent manner; apoptosis rate of HEL cells (HEL cells [3]; 48 h): 14.28%; apoptosis rate of HEL cells (HEL cells [3]; 72 h): 36.45%; relative value of the JC-1 monomer (HEL cells [4]): significantly increased; proportion of the G2/M phase in HEL cells (HEL cells [5]): increased; DNA damage (Hoechst staining) (HEL cells [6]): caused DNA damage in a dose-dependent manner; Bad, cleaved caspase-9, cleaved caspase-3 and cleaved PARP expression (HEL cells [7]): up-regulated considerably; Bcl-2 and Bcl-xL expression (HEL cells [7]): significantly down-regulated; expressions of Ras, phosphorylated Raf, MEK and ERK (HEL cells [7]): significantly reduce; levels of cell cycle proteins p-CDC25C and CyclinB1 (HEL cells [7]; dose-dependent): decreased; p53 level (HEL cells [7]; dose-dependent): up-regulated; p-STAT3 and c-Myc levels (HEL cells [7]; dose-dependent): significantly down-regulated; effects on renal and cardiac functions (URA, CREA, UA, CK-MB) ([2]; erythroleukemia mice): no effects; proportions of CD4, CD8a and B220 cells in spleen ([2]; flow cytometry): increased significantly; mature erythrocytes CD71-Ter119+ in spleen cells and bone marrow cells ([2]; flow cytometry, vs model group): significantly increased; levels of liver index, ALT and AST ([2]; vs model group): significantly lower; spleen weight ([2]; vs model mice, H-120 1, 2, 4 mg/kg intraperitoneally every other day for 3 weeks): significantly declined |
